We go through 14 molecules from patent US20260256822A1, “ENTRY-MODULATING AGENTS AND USES THEREFOR” (priority 2022, published 2026).

Several values for one entry are separate records, joined by “and”; a condition that tells them apart may be missing. Identical values can stand only once. Counter-ions that a name gives are not always drawn. Like-named read-outs stand apart in the source and are kept apart here. Some results are limits rather than exact numbers.

The test system of series [1] is P. falciparum 3D7 clone. Kind of series: In vitro blood stage parasite growth inhibition assay, [3H]-hypoxanthine incorporation, human red blood cells. It is filed as cell-based, Plasmodium falciparum.
Series [2] addresses T1, PfCyRPA (Plasmodium falciparum, UniProt Q8IFM8). It is filed as binding. Particulars: compound injected first, then 2-6SLN; both at 1 μM.
Target sequence in this assay (Q8IFM8 29-362): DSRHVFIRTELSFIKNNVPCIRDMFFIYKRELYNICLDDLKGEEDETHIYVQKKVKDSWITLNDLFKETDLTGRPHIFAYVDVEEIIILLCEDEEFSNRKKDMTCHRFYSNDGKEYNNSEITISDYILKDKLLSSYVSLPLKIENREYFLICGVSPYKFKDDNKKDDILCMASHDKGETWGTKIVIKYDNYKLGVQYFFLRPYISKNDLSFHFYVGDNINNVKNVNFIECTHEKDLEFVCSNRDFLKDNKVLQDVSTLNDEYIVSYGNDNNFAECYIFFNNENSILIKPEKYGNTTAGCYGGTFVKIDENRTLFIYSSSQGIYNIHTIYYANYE
The target of series [3] is T1, PfCyRPA. Kind of series: biochemical.
Target sequence in this assay (Q8IFM8 29-362): as above
Series [4] addresses T1, PfCyRPA. Particulars: for affinity of interaction with PfCyRPA: SPR.
Target sequence in this assay (Q8IFM8 29-362): as above
For series [5], the target named is New Delhi metallo-beta-lactamase 2 (NDM2) (Klebsiella pneumoniae, UniProt C7C422, P28A). Particulars: read-out: NDM2 KD; Table 9.
In series [6] the target is PvCyRPA (Plasmodium vivax, UniProt A5K678, A187P/D259E/E126K/E159D/E86Q/G127E/G69A/H95N/K131E/K185E/K93E/Q142K/R122K/T90K). It is filed as binding. Particulars: Table 12, PvCyRPA.
Series [7] deals with T1, PfCyRPA. Particulars: SPR. A general note: SPR reads the build-up and loss of mass on a sensor chip optically.
Target sequence in this assay (Q8IFM8 26-362): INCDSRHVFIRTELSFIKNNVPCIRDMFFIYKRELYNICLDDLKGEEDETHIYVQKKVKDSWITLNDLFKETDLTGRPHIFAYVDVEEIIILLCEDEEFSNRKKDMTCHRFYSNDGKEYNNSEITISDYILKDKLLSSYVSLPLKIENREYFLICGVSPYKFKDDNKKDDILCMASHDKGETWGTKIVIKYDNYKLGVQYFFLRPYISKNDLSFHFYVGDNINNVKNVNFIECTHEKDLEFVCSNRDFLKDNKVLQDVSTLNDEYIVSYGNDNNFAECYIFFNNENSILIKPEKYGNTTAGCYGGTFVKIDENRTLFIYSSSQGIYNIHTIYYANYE
The conditions of series [8]: mice, 7 days post infection.
Description: To determine the level of ZnPT in serum a methodology using two ZnPT binding proteins was developed.
(§1) Standard curves were run across the following concentrations: • ZnPT—0.61 nM to 10 μM • PT—61 nM to 1 mM • Zinc—0.61 μM to 10 mM
The conditions of series [9]: for Serum concentration of zinc pyrithione: human.
Description: Participants were instructed to completely wet hair, measure out 20 mL of anti-dandruff shampoo using a measuring cup provided, pour shampoo onto the scalp and massage shampoo into the scalp, leave shampoo on for 5-10 minutes using the timer provided then completely rinse off shampoo. Blood and urine samples were also collected on day 3 (two days of shampoo use), day 4 (three days of shampoo use), day 5 (day after shampoo use stops) and day 10 (five days after shampoo use has stopped). Serum was separated from blood collected in SST II Advance serum separation tubes (BD) according to the manufacturer's instructions. Sera and urine were batched and stored at −80° C. within 4 hours of collection.
as §1
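Wherever Serum concentration of zinc pyrithione is given: human volunteers used 1% ZPT shampoo twice daily for three days from day 2, serum sampled on days 1 (pre-use), 3, 4, 5 and 10.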
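Wherever day of the highest serum concentration of ZnPT is given: human volunteers used 1% ZPT shampoo twice daily for three days from day 2, serum sampled on days 1 (pre-use), 3, 4, 5 and 10.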

New Delhi metallo-beta-lactamase 2 (NDM2), sequence (C7C422 29-270 P28A (numbered from the first residue shown)): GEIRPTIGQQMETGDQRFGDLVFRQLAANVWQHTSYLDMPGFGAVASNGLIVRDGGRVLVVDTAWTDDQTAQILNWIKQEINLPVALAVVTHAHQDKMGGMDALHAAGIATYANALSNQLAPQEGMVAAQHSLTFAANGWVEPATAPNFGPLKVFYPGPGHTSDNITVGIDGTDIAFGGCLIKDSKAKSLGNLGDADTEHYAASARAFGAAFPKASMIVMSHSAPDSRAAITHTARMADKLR

For orientation: EC50 means the concentration giving half of the maximal effect. As usually defined, the Kd is a measure of binding affinity in units of concentration. On to `CC(O)C(=O)O.CCOc1ccc2nc3cc(N)ccc3c(N)c2c1` (racemic) [RIVANOL, 6,9-Diamino-2-ethoxyacridine-DL-lactate monohydrate], for which the EC50 in series [1] (Plasmodium falciparum, 3D7, Erythrocyte, Table 8, human RBC, P. falciparum 3D7, read-out: EC50 in RBC infection) is 0.019 µg/mL and 55.3 nM. Also, the “concentration that completely inhibits P. falciparum infection of human RBCs” value in [1] (human RBC, monohydrate) was 100 ng/mL and 291.1 nM. For the same molecule, in [2], the “Blocking of 2-6SLN binding” value was 87.6% ± 9.7. Further, the dissociation constant Kd in series [3] was 0.00246 ± 0.00041 µM.
For the molecule `O=C1CC2(CCCC2)CC(=O)N1CCCCN1CCN(c2ncccn2)CC1` [Buspirone hydrochloride], the “Blocking of 2-6SLN binding” value in series [2] is 77.4% ± 8.2. In series [3], this molecule yielded a Kd of 0.0336 ± 0.00431 µM.
`CO[C@H]1C[C@H](O[C@H]2[C@H](C)O[C@@H](O[C@@H]3/C(C)=C/C[C@@H]4C[C@@H](C[C@]5(C=C[C@H](C)[C@@H](C6CCCCC6)O5)O4)OC(=O)[C@@H]4C=C(C)[C@@H](O)[C@H]5OC/C(=C\C=C\[C@@H]3C)[C@]54O)C[C@@H]2OC)O[C@@H](C)[C@@H]1O` [Doramectin]: the Kd in series [4] is 7.04 ± 2.03 µM.
On to `CCC(C)[C@H]1O[C@]2(CC[C@@H]1C)C[C@@H]1C[C@@H](C/C=C(\C)[C@@H](O[C@H]3C[C@H](OC)[C@@H](O[C@H]4C[C@@H](OC)[C@H](O)[C@@H](C)O4)[C@H](C)O3)[C@@H](C)/C=C/C=C3\CO[C@@H]4[C@H](O)C(C)=C[C@@H](C(=O)O1)[C@]34O)O2` (stereo partly drawn) [Ivermectin], for which the 50% effective concentration (EC50) in series [1] (Plasmodium falciparum, 3D7, Erythrocyte, human RBC, Example 6) worked out at 0.534 µg/mL; in series [1] (read-out: EC50 in RBC infection, Table 7, human RBC, P. falciparum 3D7), 0.61 µM. Further, the “concentration that completely inhibits P. falciparum infection of human RBCs” value in series [1] (human RBC) is 2000 ng/mL and 2.29 μM. Also, in series [2], the “Blocking of 2-6SLN binding” value is on record as 67.3% ± 4.9. Moreover, in [4], the “affinity of interaction with PfCyRPA” value is “high affinity interaction”. Besides, the affinity in [3], expressed as Kd, was 0.0932 ± 0.014 µM.
As to `CO/N=C1\C[C@]2(C[C@@H]3C[C@@H](C/C=C(\C)C[C@@H](C)/C=C/C=C4\CO[C@@H]5[C@H](O)C(C)=C[C@@H](C(=O)O3)[C@]45O)O2)O[C@H](/C(C)=C/C(C)C)[C@H]1C` [Moxidectin], in [3], the equilibrium dissociation constant (Kd) worked out at 13.4 ± 0.521 µM.
On the same count and under the same terms, the value for `COc1ccc(CCC(=O)c2c(O)cc(O[C@@H]3O[C@H](CO)[C@@H](O)[C@H](O)[C@H]3O[C@@H]3O[C@@H](C)[C@H](O)[C@@H](O)[C@H]3O)cc2O)cc1O` [Neohesperidin dihydrochalcone] was 0.0246 ± 0.00145 µM; that for `CCC(C)(C)C(=O)O[C@H]1C[C@@H](C)C=C2C=C[C@H](C)[C@H](CC[C@@H]3C[C@@H](O)CC(=O)O3)[C@H]21` [Simvastatin] was 0.0314 ± 0.00224 µM.
Take `[O-][n+]1ccccc1S` [Sodium Pyrithione]: the Kd in [5] amounted to 789 µM; in series [4] (Table 3, PfCyRPA), 122 µM; in series [4] (read-out: CyRPA KD, Table 9), 122 µM.
In the case of `O=S(=O)([O-])[O-].[Zn+2]` [Zinc, Zinc sulfate], the equilibrium dissociation constant (Kd) in series [5] amounted to 317 µM; in series [4] (Table 3, PfCyRPA) it was 546 µM; in series [4] (read-out: CyRPA KD, Table 9), 546 µM.
In the case of Abamectin, the “EC50 in RBC infection” value in [1] (Table 7, human RBC, P. falciparum 3D7) was 0.888 µg/mL. The EC50 in series [1] (Table 7, human RBC, P. falciparum 3D7, read-out: EC50 in RBC infection) worked out at 1 µM. Besides, in series [1] (human RBC), the “concentration that completely inhibits P. falciparum infection of human RBCs” value was 4000 ng/mL and 4.50 μM. For the same molecule, the “Blocking of 2-6SLN binding” value in series [2] was 91.4% ± 6.8. Besides, the figures for the Kd in series [6] and in series [4] were 1.14 ± 0.23 µM and 0.0191 ± 0.00117 µM, respectively.
In series [4], Emamectin displayed a Kd of more than 100 µM.
Molecule Milbemycin yielded an equilibrium dissociation constant (Kd) in series [4] of 0.967 ± 0.057 µM.
“Neu5Ac-α-(2-6)-Gal-β-(1-4)-GlcNAc [α2-6-SLN-Ac]”: in series [7], the “glycan ligand affinity for PfCyRPA” value is on record as “highest affinity ligand”.
With Zinc Pyrithione, the “EC50 in RBC infection” value in [1] (Table 6, human RBC, P. falciparum 3D7, listed as ZnPT) stood at 0.163 µg/mL. Also, in series [1] (Table 6, human RBC, P. falciparum 3D7, read-out: EC50 in RBC infection), the half-maximal effective concentration (EC50) amounted to 0.513 µM. For the same molecule, in series [1] (human RBC, listed as ZnPT), the “concentration that completely inhibits P. falciparum infection of human RBCs” value was 500 ng/mL and 1.57 μM. The “Serum concentration at the point of testing” value in series [8] is less than 163 ng/mL. For the same molecule, the “Blocking of 2-6SLN binding” value in series [2] was 98.2% ± 3.4. Also, the Kd in series [6] is 0.0508 ± 0.00291 µM; in series [5], 0.0385 µM; in series [4], 0.000833 ± 0.000192 µM; in [4] (Table 3, PfCyRPA), 0.000833 µM; in [4] (read-out: CyRPA KD, Table 9) it was 0.000833 µM. The “Serum concentration of zinc pyrithione” value is given as 0.03 μM ± in series [9] (Serum 1, Day 1 (before shampoo use)); 0.04 μM ± in series [9] (Serum 1, Day 3, topical 1% ZPT shampoo); 0.66 μM ± in series [9] (Serum 1, Day 4, topical 1% ZPT shampoo); 2.7 μM ± in [9] (Serum 1, Day 5, topical 1% ZPT shampoo); −0.07 μM ± in [9] (Serum 1, Day 10, topical 1% ZPT shampoo); 0.02 μM ± in series [9] (Serum 2, Day 1 (before shampoo use)). The “Serum concentration of zinc pyrithione” value in [9] (Serum 2, Day 3, topical 1% ZPT shampoo) is given as 0.88 μM ±; in series [9] (Serum 2, Day 4, topical 1% ZPT shampoo), 1.8 μM ±; in series [9] (Serum 2, Day 5, topical 1% ZPT shampoo) it was 4.3 μM ±; in series [9] (Serum 2, Day 10, topical 1% ZPT shampoo), 0.33 μM ±; in series [9] (Serum 3, Day 1 (before shampoo use)), 0.08 μM ±; in series [9] (Serum 3, Day 3, topical 1% ZPT shampoo) it was 0.24 μM ±. The “Serum concentration of zinc pyrithione” value in [9] (Serum 3, Day 4, topical 1% ZPT shampoo) was 0.84 μM ±; in [9] (Serum 3, Day 5, topical 1% ZPT shampoo), 1.6 μM ±; in series [9] (Serum 3, Day 10, topical 1% ZPT shampoo), 1.0 μM ±; in series [9] (Serum 4, Day 1 (before shampoo use)), 0.03 μM ±; in series [9] (Serum 4, Day 3, topical 1% ZPT shampoo) it was 0.81 μM ±; in series [9] (Serum 4, Day 4, topical 1% ZPT shampoo), 1.0 μM ±. The “Serum concentration of zinc pyrithione” value in [9] (Serum 4, Day 5, topical 1% ZPT shampoo) is recorded as 1.5 μM ±; in series [9] (Serum 4, Day 10, topical 1% ZPT shampoo), 1.2 μM ±; in series [9] (Serum 5, Day 1 (before shampoo use)), 0.01 μM ±; in series [9] (Serum 5, Day 3, topical 1% ZPT shampoo) it was 0.02 μM ±; in [9] (Serum 5, Day 4, topical 1% ZPT shampoo), 0.10 μM ±; in series [9] (Serum 5, Day 5, topical 1% ZPT shampoo), 0.22 μM ±. In addition, the “Serum concentration of zinc pyrithione” value is 0.02 μM ± in series [9] (Serum 5, Day 10, topical 1% ZPT shampoo); 0.001 μM ± in series [9] (Serum 6, Day 1 (before shampoo use)); 0.10 μM ± in series [9] (Serum 6, Day 3, topical 1% ZPT shampoo); 0.21 μM ± in series [9] (Serum 6, Day 4, topical 1% ZPT shampoo); 0.38 μM ± in [9] (Serum 6, Day 5, topical 1% ZPT shampoo); 0.007 μM ± in [9] (Serum 6, Day 10, topical 1% ZPT shampoo). Further, the “Serum concentration of zinc pyrithione” value in series [9] (Serum 7, Day 1 (before shampoo use)) is reported as 0.01 μM ±; in [9] (Serum 7, Day 3, topical 1% ZPT shampoo), 0.84 μM ±; in series [9] (Serum 7, Day 4, topical 1% ZPT shampoo), 0.96 μM ±; in series [9] (Serum 7, Day 5, topical 1% ZPT shampoo), 1.5 μM ±; in series [9] (Serum 7, Day 10, topical 1% ZPT shampoo) it was 1.2 μM ±; in series [9] (Serum 8, Day 1 (before shampoo use)), 0.02 μM ±. Further, the “Serum concentration of zinc pyrithione” value in [9] (Serum 8, Day 3, topical 1% ZPT shampoo) is recorded as 0.02 μM ±; in [9] (Serum 8, Day 4, topical 1% ZPT shampoo) it was 0.09 μM ±; in series [9] (Serum 8, Day 5, topical 1% ZPT shampoo) it was 0.26 μM ±; in series [9] (Serum 8, Day 10, topical 1% ZPT shampoo), 0.11 μM ±; in [9] (Serum 9, Day 1 (before shampoo use)), 0.04 μM ±; in series [9] (Serum 9, Day 3, topical 1% ZPT shampoo) it was 0.22 μM ±. Also, the “Serum concentration of zinc pyrithione” value was 0.30 μM ± in [9] (Serum 9, Day 4, topical 1% ZPT shampoo); 0.49 μM ± in series [9] (Serum 9, Day 5, topical 1% ZPT shampoo); 0.14 μM ± in [9] (Serum 9, Day 10, topical 1% ZPT shampoo); 0.004 μM ± in series [9] (Serum 10, Day 1 (before shampoo use)); 0.15 μM ± in series [9] (Serum 10, Day 3, topical 1% ZPT shampoo); 1.1 μM ± in series [9] (Serum 10, Day 4, topical 1% ZPT shampoo). The “Serum concentration of zinc pyrithione” value in [9] (Serum 10, Day 5, topical 1% ZPT shampoo) is listed as 1.5 μM ±; in series [9] (Serum 10, Day 10, topical 1% ZPT shampoo), 0.98 μM ±. In addition, in [9] (day after three consecutive days of topical treatment), the “day of the highest serum concentration of ZnPT” value is 5 days. In addition, in series [4], the “affinity of interaction with PfCyRPA” value is given as “high affinity interaction”.
